Assay results: patent US20250136932A1, “COMPOSITIONS AND METHODS FOR CULTURING AND MAINTAINING TROPHOBLAST STEM CELLS” (NORTH CAROLINA STATE UNIVERSITY, priority 2022, published 2025)

Experiments:
[1] = tested on: CDX2+ hTSCs from CTBs from term placentas; assay: Derivation and support of CDX2+ hTSCs from term placental CTBs; format: cell-based, human; conditions: component added to or exchanged in TSCM
Experimental: Differentiation of term CTBs to hTSCs. Term CTBs that were previously frozen were thawed directly into DTM7 medium, or TSCMUA medium (see, e.g., Table 1). To assess DTME medium, cells cultured in TSCMUA were passaged into DTME.
Culture of hTSCs. hTSCs were cultured in 2 ml of DTM7 at 37 C in 5% CO2. Culture medium was replaced every 2 days. When hTSCs reached 70-90% confluence, they were dissociated with TrypLE at 37° C. for 5-10 minutes and passaged to a new 6-well plate pre-coated with 3 μg/ml of vitronectin and 1 μg/ml of Laminin 521 at a 1:3-1:4 split ratio and were supplemented with Y-27632 upon passage to aid in single cell attachment. Cells were routinely passaged approximately every 4-6 days. hTSCs at passages 2+ (typically passage 5+) were used for analysis.
hTSC cell culture. hTSCs were cultured as previously described by Okae et al. with minor modifications. Additionally, similar protocols were used for the TSCMUA, DMT7, and DTME media described further herein. […]

CTB21126R+ term hTSCs = assay: Immunofluorescence marker expression in term CTB-derived hTSCs; format: cell-based, human; conditions: term hTSCs switched from TSCM+UK5099+AlbuMAX to TSCM
Experimental: Immunofluorescence analysis. For immunofluorescence analysis, cells were grown on glass-bottom culture dishes coated with 3 μg/ml vitronectin and 1 μg/ml of Laminin 521. Cells were fixed either using 4% paraformaldehyde in PBS for 10 min, permeabilized with 0.5% Triton X-100 for 5 min and blocked in 3% BSA/PBS with 0.1% human IgG and 0.3% Triton X-100 for 1 hr. Cells were then incubated overnight with the primary antibody diluted in blocking buffer. The following primary antibodies were used: anti-KRT7 (SCB, 1:50), anti-KRT7 (CST, 1:500), rabbit anti-hCG (1:100), mouse anti-hCG (1:100), anti-YAP (1:200), anti-TFAP2C (1:400), anti-P63 (1:600), anti-GATA3 (1:500), anti-TEAD4 (1:250), anti-CDX2 (1:300), anti-VE-Cadherin (1:400), anti-HLA-G (1:300), anti-syncytin (1:50). Corresponding isotype controls (rabbit polyclonal IgG, rabbit XP IgG, mouse IgG1, and mouse IgG2a) were used at primary antibody concentrations. Alexa Fluor 488- or Alexa Fluor 647-conjugated secondary antibodies were used as secondary antibodies. Nuclei were stained with DAPI and all samples were imaged using a Zeiss LSM 710 or 880 laser scanning confocal microscope (Carl Zeiss, Germany).
Immunostaining. For immunofluorescence analysis, 3×10^4 cells were grown on 24-well glass bottom plates coated with 3 μg/ml of vitronectin and 1 μg/ml of Laminin 521. […]

| Compound | Role of component in hTSC derivation from term CTB [1] | Role of component in CDX2 expression (CTB21126R+ term hTSCs) |
| --- | --- | --- |
| N#CC(=Cc1cn(-c2ccccc2)c2ccccc12)C(=O)O [UK5099, α-cyano-β-(1-phenylindol-3-yl)-acrylate] | necessary | important for CDX2 expression |
| lysophosphatidic acid [LPA] | cannot replace AlbuMAX | – |
